The values below come from US20080214563A1, “Benzimidazole Thiophene Compounds As Plk Modulators” (priority 2005, published 2008).

Bounds are passed on as bounds.

For orientation: AUC(0-t) means exposure summed from dosing to a finite time, without extrapolation to infinity.

Data set [1] has as its system Normal human foreskin fibroblasts (HFF). Nature of the data set: Methylene Blue Cell Growth Inhibition Assay, HFF. The following applies: Fibroblast, 72 h, read-out: MEB HFF IC50. It is filed as cell-based. Here is the method: (§1) Normal human foreskin fibroblasts (HFF), human colon (HCT116, RKO), lung (H460, A549) and breast (MCF7) tumor cell lines were cultured in high glucose DMEM (Life Technologies) containing 10% fetal bovine serum (FBS) at 37° C. in a humidified 5% CO2, 95% air incubator. Cells were harvested using trypsin/EDTA, counted using a haemocytometer, and plated in 100 μL of culture media per well, at the following densities, in a 96-well tissue culture plate (Falcon 3075): HFF 5,000 cells/well, HCT116 3,000 cells/well, RKO 2,500 cells/well, H460 2,500 cells/well, A549 5,000 cells/well, MCF7 4,000 cells/well. The next day, compounds were diluted in low glucose DMEM containing 100 μg/mL gentamicin, at twice the final required concentration, from 10 mM stock solutions in DMSO. 100 μL/well of these dilutions were added to the 100 μL of media currently in the assay plates. Medium containing 0.6% DMSO was added to control wells. The final concentration of DMSO in all wells was 0.3%. Cells were incubated at 37° C., 5% CO2 for 72 h. Medium was removed by aspiration. Cell biomass was estimated by staining cells with 80 μL per well methylene blue (Sigma M9140, 0.5% in 50:50 ethanol:water), and incubation at room temperature for 30-60 min. Stain was removed by aspiration and the plates rinsed by immersion in water, then air-dried. To release stain from the cells, 100 μL of solubilization solution was added (1% N-lauroyl sarcosine, Sodium salt, Sigma L5125, in PBS), and plates were shaken gently for about 30 min. Optical density at 620 nm was measured on a microplate reader. Percent inhibition of cell growth was calculated relative to vehicle treated control wells. Concentration of compound that inhibits 50% of cell growth (IC50) was interpolated using nonlinear regression (Levenberg-Marquardt) and the equation, y=Vmax*(1−(x/(K+x)))+Y2, where “K” was equal to the IC50.

For the next data set, the system named is A549. The data set can be described thus: Methylene Blue Cell Growth Inhibition Assay, A549. The format is cell-based. Conditions: Homo sapiens, 72 h, read-out: MEB A549 IC50. Here is the method:
as §1

A further data set concerns MX-1. The data set can be described thus: Methylene Blue Cell Growth Inhibition Assay, MX-1. The format is cell-based. Conditions: Homo sapiens, MX1, 72 h, read-out: MEB MX-1 IC50.
In the next data set the test system is H460. Nature of the data set: Methylene Blue Cell Growth Inhibition Assay, H460. The format is cell-based. The following applies: Homo sapiens, NCI-H460, 72 h, read-out: MEB H460 IC50. As for the experimental part: as §1
The nature of data set [2]: Intravenous pharmacokinetics in CD-1 mouse. The format is in vivo. The following applies: plasma, iv bolus, male CD-1 mouse, dose 1.9-7.4 mg/kg per compound (Table 3); for clearance: read-out: Plasma CL. Here is the method:
Preliminary investigation of the intravenous pharmacokinetics of compounds of invention were carried out in fed conscious CD-1 mouse. Compounds were formulated as 1-10 mg/kg, 5 mL/kg, 1-2 mg/mL solution (Table 3). Twenty one male mice (n=3 mice per time point) (˜30 g) received dose solution by bolus injection in the tail vein. The formulation for iv were either 20% beta cyclodextrin in saline pH 3.5-6 or PEG400:ethanol:saline (50:15:35 v/v). Blood samples (˜0.4 mL) were collected terminally by cardiac puncture following anesthetization in a CO2 chamber at 2, 15, 30, 60 min, 2, 4, and 6 h following iv administration. Blood samples were collected into tubes containing heparin and placed on crushed ice promptly after collection. Plasma was collected by centrifugation, frozen and stored at about −80° C. prior to analysis. Blood or plasma concentrations were determined by LC/MS/MS equipped with an electrospray ion source and using calibration curves for the appropriate matrix. The lower level of quantitation (LLQ) was 10 ng/mL. Blood or plasma concentration-time data were analyzed by non-compartmental methods using the computer program WinNonlin Professional (version 4.1). Area under the blood or plasma concentration-time curve (AUC) was calculated using the linear trapezoidal rule for each incremental trapezoid up to Cmax, and the log trapezoidal rule for each trapezoid thereafter. The terminal elimination rate constant (λz) was derived from the log-linear disposition phase of the concentration-time curve using least-squares regression analysis with visual inspection of the data to determine the appropriate number of terminal data points for regression analysis.
Following iv administration, the total body clearance (CL) was estimated. CL was calculated by dividing the dose by AUC(0−t). The clearance values were assigned as follows. Low <30 mL/min/kg, moderate 30-70 mL/min/kg, high >70 mL/min/kg. The assignment was based on hepatic blood flow i.e. hepatic blood flow of 0-30% low, 30-70% moderate and 70-100% high. The hepatic blood flow in mouse is ˜100 mL/min/kg.

A further data set concerns HCT116. The data set can be described thus: Methylene Blue Cell Growth Inhibition Assay, HCT116. The format is cell-based. The following applies: Homo sapiens, HCT-116, 72 h, read-out: MEB HCT116 IC50. As for the experimental part:
as §1

For the next data set, the system named is HCT-116. The data set can be described thus: Cell-Titer Glo Cell Growth Inhibition Assay, HCT116. The format is cell-based. The following applies: Homo sapiens, CellTiter-Glo, 72 h, read-out: CTG HCT116 IC50. As for the experimental part: A549-L (human lung), BT474 (human breast), Colo 205 (human colon), H1299 (human lung), Hela (human cervix), HCT-116 (human colon), HN5 (human head and neck), HT29 (human colon), LNCap (human prostate), MCF7 (human breast), MDA-MB468 (human breast), MX-1 (human breast), RPMI 8226 (human peripheral blood), SKOV3 (human ovary) and P388 (murine leukemia) cell lines were cultured in RPMI1640 containing 10% fetal bovine serum at 37° C. in a 5% CO2 incubator. Cell lines were split into T75 flasks (Falcon #353136) two to three days prior to assay set up at density which yields approximately 70-80% confluency at time of harvest for assay. Cells were harvested using 0.25% trypsin with EDTA (Glibco/Invitrogen #25200-056), Cell counts were performed on cell suspensions using Trypan Blue exclusion staining, cells were then plated in 105 uL of culture media per well at the following densities in 96 well Costar #3916 black flat bottom plates: All human cell lines were plated at 500 cells/well. P388 were plated at 250 cells/well. All plates were placed at 5% CO2 37° C. overnight and then test compounds were added the following day. One plate of each cell type is treated with CellTiter-Glo (Promega #G7573) for a day 0 proliferation measurement and read as described below. The test compounds are prepared in clear U bottom polypropylene 96 well plates (Falcon #35-1190 with consecutive two fold dilutions. 9 uL of these dilutions was added into each well of the cell plates. The final concentration of DMSO in all wells is 0.15%. Cells were incubated at 37° C., 5% CO2 for 72 h. Following 72 h of incubation with compounds each plate was developed and read. CellTiter-Glo reagent was added to assay plates using a volume equivalent to the cell culture volume in the wells. Plates were shaken for approximately two minutes and incubated at room temperature for approximately 15 min and the chemiluminescent signal is read on the Victor V or Envison 2100 reader. […] Concentration of compound that inhibited 50% of cell growth (IC50) was analysis by 4 or 6 parameter fit of data using XLfit, value of no cell addition was subtracted from all samples for background.
Background: In ATP-based viability assays light output follows the ATP content of the culture.

The subject of a further data set is RKO. The data set can be described thus: Methylene Blue Cell Growth Inhibition Assay, RKO. The format is cell-based. The following applies: Homo sapiens, 72 h, read-out: MEB RKO IC50. Here is the method:
as §1

The subject of the next data set is MCF7. The data set can be described thus: Methylene Blue Cell Growth Inhibition Assay, MCF7. The format is cell-based. Conditions: Homo sapiens, 72 h, read-out: MEB MCF7 IC50. Here is the method:
as §1

Another data set addresses T1, PLK1 kinase domain (Homo sapiens, UniProt P53350).
T1 construct: made in house; host or cells: baculovirus infected T. ni cells
The data set can be described thus: Assay for Inhibition of PLK1 (33P SPA kinase assay). It is filed as biochemical. Conditions: 2 nM PLK1 kinase domain, 1 μM ATP; read-out: PLK1 pIC50 (converted). Here is the method:
All procedures were performed at 4° C. Cells were lysed in 50 mM HEPES, 200 mM NaCl, 50 mM imidazole, 5% glycerol; pH 7.5. The homogenate was centrifuged at 14K rpm in a SLA-1500 rotor for 1 h and the supernatant filtered through a 1.2 micron filter. The supernatant was loaded onto a Nickel chelating Sepharose (Amersham Pharmacia) column and washed with lysis buffer. Protein was eluted using 20%, 30% and 100% buffer B steps where buffer B is 50 mM HEPES, 200 mM NaCl, 300 mM imidazole, 5% glycerol; pH 7.5. Fractions containing PLK were determined by SDS-PAGE. Fractions containing PLK were diluted five-fold with 50 mM HEPES, 1 mM DTT, 5% glycerol; pH 7.5, then loaded on an SP Sepharose (Amersham Pharmacia) column. After washing the column with 50 mM HEPES, 1 mM DTT, 5% glycerol; pH 7.5, PLK was step eluted with 50 mM HEPES, 1 mM DTT, 500 mM NaCl; 5% glycerol; pH 7.5. PLK was concentrated using a 10 kDa molecular weight cutoff membrane and then loaded onto a Superdex 200 gel filtration (Amersham Pharmacia) column equilibrated in 25 mM HEPES, 1 mM DTT, 500 mM NaCl, 5% glycerol; pH 7.5. Fractions containing PLK were determined by SDS-PAGE. PLK was pooled, aliquoted and stored at −80° C. Samples were quality controlled using mass spectrometry, N-terminal sequencing and amino acid analysis.
B. Enzyme activity +/− inhibitors was determined as follows:
All measurements were obtained under conditions where signal production increased linearly with time and enzyme. Test compounds were added to white 384-well assay plates (0.1 μL for 10 μL and some 20 μl assays, 1 μL for some 20 μL assays) at variable known concentrations in 100% DMSO. DMSO (1-5% final, as appropriate) and EDTA (65 mM in reaction) were used as controls.
Reaction Mix (10 or 20 μL) was quickly added to each well immediately following addition of enzyme via automated liquid handlers and incubated 1-1.5 h at 22° C. The 20 μL enzymatic reactions were stopped with 50 μL of stop mix (50 mM EDTA, 4.0 mg/mL Streptavidin SPA beads in Standard Dulbecco's PBS (without Mg^2+ and Ca^2+), 50 μM ATP) per well. The 10 μL reactions were stopped with 10 μL of stop mix (50 mM EDTA, 3.0 mg/mL Streptavidin-coupled SPA Imaging Beads (“LeadSeeker”) in Standard Dulbecco's PBS (without Mg^2+ and Ca^2+), 50 μM ATP) per well. Plates were sealed with clear plastic seals, spun at 500×g for 1 min or settled overnight, and counted in Packard TopCount for 30 seconds/well (regular SPA) or imaged using a Viewlux imager (LeadSeeker SPA). Signal above background (EDTA controls) was converted to percent inhibition relative to that obtained in control (DMSO-only) wells.

T1 sequence (P53350 21-346): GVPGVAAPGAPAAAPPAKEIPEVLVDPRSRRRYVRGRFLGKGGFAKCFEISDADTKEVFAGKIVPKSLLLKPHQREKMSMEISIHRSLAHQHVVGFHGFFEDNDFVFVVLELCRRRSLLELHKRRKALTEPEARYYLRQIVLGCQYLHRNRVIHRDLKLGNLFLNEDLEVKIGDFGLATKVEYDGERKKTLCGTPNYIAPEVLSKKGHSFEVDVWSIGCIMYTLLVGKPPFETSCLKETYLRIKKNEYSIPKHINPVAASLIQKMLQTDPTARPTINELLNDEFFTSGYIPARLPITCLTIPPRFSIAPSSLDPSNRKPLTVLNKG

As to `C[C@@H](Oc1cc(-n2cnc3cc(-c4ccnc(N)c4)ccc32)sc1C(N)=O)c1ccccc1C(F)(F)F` [Example 4, 5-[5-(2-Amino-4-pyridinyl)-1H-benzimidazol-1-yl]-3-({(1R)-1-[2-(trifluoromethyl)phenyl]ethyl}oxy)-2-thiophenecarboxamide], the IC50 in [1] was 100 to 1000 nM; with A549 it was under 100 nM; in the data set on MX-1, under 100 nM; in the data set on H460, under 100 nM; with HCT116 it was under 100 nM; in the data set with HCT-116 it was under 100 nM. The IC50 in the data set on RKO was under 100 nM. Further, the AUC(0-t) in [2] turned out to be 1170 ng·h/mL. In data set [2], the clearance is 37.9 mL/min/kg.
For `C[C@@H](Oc1cc(-n2cnc3cc(-c4cn[nH]c4)ccc32)sc1C(N)=O)c1ccccc1C(F)(F)F` [Example 5, 5-[5-(1H-Pyrazol-4-yl)-1H-benzimidazol-1-yl]-3-({(1R)-1-[2-(trifluoromethyl)phenyl]ethyl}oxy)-2-thiophenecarboxamide], the IC50 in data set [1] is 100 to 1000 nM; in the data set on A549, under 100 nM; with MX-1 it was under 100 nM; with H460, under 100 nM; with HCT116 it was under 100 nM; in the data set with HCT-116, under 100 nM. In the data set on RKO, the IC50 is under 100 nM. This molecule showed an AUC(0-t) in data set [2] of 1370 ng·h/mL. For the same molecule, the clearance in [2] was 23.1 mL/min/kg.
As for `COc1cc2ncn(-c3cc(OC(C)c4ccccc4Cl)c(C(N)=O)s3)c2cc1OC` (stereo not drawn) [PU4870 Ex 126, reference compound], the IC50 was 100 to 1000 nM in [1]; under 100 nM in the data set on A549; over 1000 nM with MCF7; under 100 nM with H460; under 100 nM in the data set on HCT116; under 100 nM in the data set on RKO.
As to `COc1cc2ncn(-c3cc(OC(C)c4ccccc4C(F)(F)F)c(C(N)=O)s3)c2cc1OC` (stereo not drawn) [PU4870 Ex 127, reference compound], the IC50 in data set [1] was over 1000 nM; in the data set with A549, under 100 nM; in the data set with MCF7 it was 100 to 1000 nM; in the data set with H460, under 100 nM; with HCT-116, 100 to 1000 nM; at PLK1 kinase domain it was under 10 nM. In the data set with RKO, the IC50 was under 100 nM.
`COc1cc2c(cc1OCCCN1CCCC1=O)ncn2-c1cc(OCc2ccccc2C(F)(F)F)c(C(N)=O)s1` [PU4870 Ex 134, reference compound]: the IC50 (in [1]; in the data set with A549; in the data set on MCF7; with H460; with HCT116; in the data set on HCT-116) was over 1000 nM throughout. For the same molecule, the values for the IC50 at PLK1 kinase domain and in the data set with RKO were 10 to 1000 nM and over 1000 nM, respectively.
With `NC(=O)c1sc(-n2cnc3cc(C(=O)NCCN4CCNC4=O)ccc32)cc1OCc1ccccc1C(F)(F)F` [PU4870 Ex 156, reference compound], the IC50 in data set [1] was over 1000 nM; in the data set with MCF7, over 1000 nM; in the data set on H460, over 1000 nM; with HCT116 it was over 1000 nM; on PLK1 kinase domain it was 10 to 1000 nM; with RKO it was over 1000 nM.
